PMC8776995 (Frontiers in Chemistry, 2022)
Values joined by “and” are separate entries in the source; they are usually repeats but may differ in a detail not shown here. Equal values may be shown once. Read-outs that look alike come from different tables or passages of the source. Blank lines part the entries; values can stand above or below the compound they belong to.

How the values were obtained:
[1] = tested on: PC-9 cells; experiment: CCK-8 antiproliferation assay, PC-9; details: for IC50: PC-9, 48 h, read-out: IC50 (μM) PC-9; for Inhibitory efficacy: single repeats (Repeat 1-3), given as fraction
[2] = tested on: H460 cells; experiment: CCK-8 antiproliferation assay, H460; details: for IC50: NCI-H460, 48 h, read-out: IC50 (μM) H460, CCK-8, 48 h, average ± SD of three independent experiments
[3] = tested on: A549 cells; experiment: CCK-8 antiproliferation assay, A549; details: for Inhibitory efficacy: A549 cells; for IC50: A549, 48 h, read-out: IC50 (μM) A549, CCK-8, 48 h, average ± SD of three independent experiments
Description: The compounds were dissolved in DMSO to make a 20 μM stock solution and diluted to the concentration of working solutions with complete growth medium before administration.
Cells were seeded in 96-well plates: 3,000–5,000 cells/well in 100 ul. One day after seeding, the test compounds at concentration between 1.0 and 16.0 μ M or 0.1% DMSO (as control) were added to cells in triplicate. 48 h later, CCK-8 was added and incubated the plate for 1–4 h in the incubator. The absorbance at 450 nm were measured using a microplate reader (Bio-Tek).

[4] = tested on: H1975 cells; experiment: CCK-8 antiproliferation assay, H1975; details: for Inhibitory efficacy: H1975 cells; for IC50: NCI-H1975, 48 h, read-out: IC50 (μM) H1975, CCK-8, 48 h, average ± SD of three independent experiments
[5] = molecular target: wild-type EGFR (Homo sapiens, UniProt P00533); experiment: EGFR kinase assay (ELISA); details: for IC50: IC50 (μM) EGFR, ELISA, 3 μmol/L ATP; for A450: raw ELISA absorbance
wild-type EGFR, sequence (P00533 25-1210): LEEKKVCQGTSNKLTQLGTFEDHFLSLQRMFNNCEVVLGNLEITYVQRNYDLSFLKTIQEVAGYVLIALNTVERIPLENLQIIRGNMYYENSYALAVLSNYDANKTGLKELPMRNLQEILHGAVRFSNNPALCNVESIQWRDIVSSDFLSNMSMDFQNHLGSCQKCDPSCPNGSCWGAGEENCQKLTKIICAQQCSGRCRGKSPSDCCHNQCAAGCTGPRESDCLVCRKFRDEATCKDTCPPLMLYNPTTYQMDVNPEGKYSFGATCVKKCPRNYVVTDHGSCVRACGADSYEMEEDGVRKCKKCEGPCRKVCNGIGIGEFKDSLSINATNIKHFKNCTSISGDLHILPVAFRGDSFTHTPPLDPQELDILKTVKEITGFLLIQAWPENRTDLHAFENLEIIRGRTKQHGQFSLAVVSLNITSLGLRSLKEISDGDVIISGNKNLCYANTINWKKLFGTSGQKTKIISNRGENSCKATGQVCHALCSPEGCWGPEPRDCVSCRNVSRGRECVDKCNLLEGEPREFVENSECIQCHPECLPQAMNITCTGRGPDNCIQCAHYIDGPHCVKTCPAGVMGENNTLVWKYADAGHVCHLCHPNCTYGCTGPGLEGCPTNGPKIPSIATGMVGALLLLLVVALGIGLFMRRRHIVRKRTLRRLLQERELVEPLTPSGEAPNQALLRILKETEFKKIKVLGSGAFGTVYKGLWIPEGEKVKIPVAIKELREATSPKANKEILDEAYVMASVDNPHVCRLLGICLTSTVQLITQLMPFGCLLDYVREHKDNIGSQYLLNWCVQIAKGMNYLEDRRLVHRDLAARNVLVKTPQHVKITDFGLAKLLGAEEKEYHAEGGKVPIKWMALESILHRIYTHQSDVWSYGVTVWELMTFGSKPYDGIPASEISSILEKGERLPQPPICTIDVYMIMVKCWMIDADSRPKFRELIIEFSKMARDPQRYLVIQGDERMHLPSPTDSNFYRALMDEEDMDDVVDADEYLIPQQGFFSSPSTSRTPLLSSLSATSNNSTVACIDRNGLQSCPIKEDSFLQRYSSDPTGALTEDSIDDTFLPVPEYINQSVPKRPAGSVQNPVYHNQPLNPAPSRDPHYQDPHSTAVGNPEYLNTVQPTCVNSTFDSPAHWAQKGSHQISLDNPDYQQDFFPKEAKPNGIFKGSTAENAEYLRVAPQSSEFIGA

[6] = 2uM, given as fraction, Repeat 1-3
[7] = 4uM, given as fraction, Repeat 1-3
[8] = 8uM, given as fraction, Repeat 1-3
[9] = 16uM, given as fraction, Repeat 1-3
[10] = Homo sapiens, A549, read-out: Inhibitory efficacy, A549 cells, 2uM, given as fraction, Repeat 1-3
[11] = Homo sapiens, A549, read-out: Inhibitory efficacy, A549 cells, 4uM, given as fraction, Repeat 1-3
[12] = Homo sapiens, A549, read-out: Inhibitory efficacy, A549 cells, 8uM, given as fraction, Repeat 1-3
[13] = Homo sapiens, A549, read-out: Inhibitory efficacy, A549 cells, 16uM, given as fraction, Repeat 1-3
[14] = Homo sapiens, NCI-H1975, read-out: Inhibitory efficacy, H1975 cells, 16uM, given as fraction, Repeat 1-3

- IC50 ([1]; Homo sapiens): > 100 µM
- IC50 ([2]; Homo sapiens): > 100 µM
- IC50 ([3]; Homo sapiens): > 100 µM
- IC50 ([4]; Homo sapiens): > 100 µM
- melting point: 109 to 112 °C
- IC50 [5]: 0.28 µM
- inhibition at 100 fM ([5]; concentration 0.0001 nM (reference for normalisation), one value per replicate column): 0%
- inhibition at 30 pM ([5]; concentration 0.03 nM, one value per replicate column): 3.3%
- Inhibition ([5]; concentration 0.03 nM, one value per replicate column, 3e-05 µM): 3.99
- inhibition at 0.0003 µM ([5]; concentration 0.3 nM, one value per replicate column): 21.7%
- Inhibition ([5]; concentration 0.3 nM, one value per replicate column, 0.0003 µM): 27.0358
- inhibition at 0.003 µM ([5]; concentration 3 nM, one value per replicate column): 38.5%
- Inhibition ([5]; concentration 3 nM, one value per replicate column, 0.003 µM): 33.7948
- inhibition at 0.03 µM ([5]; concentration 30 nM, one value per replicate column): 40.5%
- Inhibition ([5]; concentration 30 nM, one value per replicate column, 0.03 µM): 35.1792
- inhibition at 0.3 µM ([5]; concentration 300 nM, one value per replicate column): 42.1%
- Inhibition ([5]; concentration 300 nM, one value per replicate column, 0.3 µM): 40.798
- inhibition at 3 µM ([5]; concentration 3000 nM, one value per replicate column): 55.8%
- Inhibition ([5]; concentration 3000 nM, one value per replicate column, 3 µM): 51.9544
- inhibition at 30 µM ([5]; concentration 30000 nM, one value per replicate column): 88.6%
- Inhibition ([5]; concentration 30000 nM, one value per replicate column, 30 µM): 85.4235
- A450 ([5]; concentration 0.0001 nM): 1.605 and 1.533
- A450 ([5]; concentration 0.03 nM): 1.562 and 1.484
- A450 ([5]; concentration 0.3 nM): 1.323 and 1.201
- A450 ([5]; concentration 3 nM): 1.104 and 1.118
- A450 ([5]; concentration 30 nM): 1.078 and 1.101
- A450 ([5]; concentration 300 nM): 1.057 and 1.032
- A450 ([5]; concentration 3000 nM): 0.879 and 0.895
- A450 ([5]; concentration 30000 nM): 0.452 and 0.484
SMILES: COCCOc1cc2ncnc(Nc3cccc(-c4cn(CCc5ccccc5)nn4)c3)c2cc1OCCOC [e20, [6,7-Bis-(2-methoxy-ethoxy)-quinazolin-4-yl]-[3-(1-phenethyl-1H-[1,2,3]triazol-4-yl)-phenyl]-amine]
- Inhibitory efficacy ([2]; H460 cells, 1uM, given as fraction, Repeat 1-3): 0.1948 and 0.1895
- Inhibitory efficacy ([2]; H460 cells, 4uM, given as fraction, Repeat 1-3): 0.1258 and 0.07143
- inhibition at 1 µM ([2]; Homo sapiens, NCI-H460, read-out: Inhibitory efficacy, H460 cells, 1uM, given as fraction, Repeat 1-3): 17.3%
- inhibition at 4 µM ([2]; Homo sapiens, NCI-H460, read-out: Inhibitory efficacy, H460 cells, 4uM, given as fraction, Repeat 1-3): 9.76%
- Inhibitory efficacy [3, 6]: 0.2224 and 0.1702
- Inhibitory efficacy [3, 7]: 0.2939 and 0.3309
- Inhibitory efficacy [3, 8]: 0.2956 and 0.3275
- Inhibitory efficacy [3, 9]: 0.2156 and 0.1736
- inhibition at 2 µM [3, 10]: 18.8%
- inhibition at 4 µM [3, 11]: 29.1%
- inhibition at 8 µM [3, 12]: 22.2%
- inhibition at 16 µM [3, 13]: 20.2%
- Inhibitory efficacy [4, 9]: 0.06216 and 0.05712
- inhibition at 16 µM [4, 14]: 8.81%

- IC50 ([1]; Homo sapiens): 11.5 ± 1.57 µM
- IC50 ([2]; Homo sapiens): > 100 µM
- IC50 ([3]; Homo sapiens): > 100 µM
- IC50 ([4]; Homo sapiens): 13.1 ± 4.41 µM
- melting point: 88 to 91 °C
- inhibition at 0.0003 µM ([5]; 0.3 nM, duplicate wells, calculated from A450): 6.05%
- Inhibition ([5]; 0.3 nM, duplicate wells, calculated from A450, 0.0003 µM): 3.39
- inhibition at 0.003 µM ([5]; 3 nM, duplicate wells, calculated from A450): 8.07%
- Inhibition ([5]; 3 nM, duplicate wells, calculated from A450, 0.003 µM): 4.0678
- inhibition at 0.03 µM ([5]; 30 nM, duplicate wells, calculated from A450): 9.08%
- Inhibition ([5]; 30 nM, duplicate wells, calculated from A450, 0.03 µM): 6.78
- inhibition at 0.3 µM ([5]; 300 nM, duplicate wells, calculated from A450): 10.9%
- Inhibition ([5]; 300 nM, duplicate wells, calculated from A450, 0.3 µM): 7.627
- inhibition at 3 µM ([5]; 3000 nM, duplicate wells, calculated from A450): 13.4%
- Inhibition ([5]; 3000 nM, duplicate wells, calculated from A450, 3 µM): 20.339
- inhibition at 30 µM ([5]; 30000 nM, duplicate wells, calculated from A450): 61%
- Inhibition ([5]; 30000 nM, duplicate wells, calculated from A450, 30 µM): 71.3559
- IC50 [5]: 14.7 µM
SMILES: COCCOc1cc2ncnc(Nc3cccc(-c4cn(-c5ccc(F)cc5)nn4)c3)c2cc1OCCOC [e7, [6,7-Bis-(2-methoxy-ethoxy)-quinazolin-4-yl]-{3-[1-(4-fluoro-phenyl)-1H-[1,2,3]triazol-4-yl]-phenyl}-amine]
- inhibition at 4 µM ([1]; Homo sapiens, PC-9, read-out: Inhibitory efficacy, PC-9, 4uM, single repeats (Repeat 1-3), given as fraction): 21.3%
- inhibition at 8 µM ([1]; Homo sapiens, PC-9, read-out: Inhibitory efficacy, PC-9, 8uM, single repeats (Repeat 1-3), given as fraction): 41.9%
- inhibition at 16 µM ([1]; Homo sapiens, PC-9, read-out: Inhibitory efficacy, PC-9, 16uM, single repeats (Repeat 1-3), given as fraction): 62.5%
- Inhibitory efficacy ([1]; PC-9, 4uM, 4 µM): 0.2652 and 0.1935
- Inhibitory efficacy ([1]; PC-9, 8uM, 8 µM): 0.448 and 0.4014
- Inhibitory efficacy ([1]; PC-9, 16uM, 16 µM): 0.5556 and 0.543
- Inhibitory efficacy ([2]; H460, 1uM, single repeats (Repeat 1-3), given as fraction, 1 µM): 0.233 and 0.152
- Inhibitory efficacy ([2]; H460, 2uM, single repeats (Repeat 1-3), given as fraction, 2 µM): 0.3048 and 0.3792
- Inhibitory efficacy ([2]; H460, 4uM, single repeats (Repeat 1-3), given as fraction, 4 µM): 0.2364 and 0.2572
- Inhibitory efficacy ([2]; H460, 8uM, single repeats (Repeat 1-3), given as fraction, 8 µM): 0.2581 and 0.2146
- Inhibitory efficacy ([2]; H460, 16uM, single repeats (Repeat 1-3), given as fraction, 16 µM): 0.3099 and 0.4184
- inhibition at 1 µM ([2]; Homo sapiens, NCI-H460, read-out: Inhibitory efficacy, H460, 1uM, single repeats (Repeat 1-3), given as fraction): 13.2%
- inhibition at 2 µM ([2]; Homo sapiens, NCI-H460, read-out: Inhibitory efficacy, H460, 2uM, single repeats (Repeat 1-3), given as fraction): 30.4%
- inhibition at 4 µM ([2]; Homo sapiens, NCI-H460, read-out: Inhibitory efficacy, H460, 4uM, single repeats (Repeat 1-3), given as fraction): 30.3%
- inhibition at 8 µM ([2]; Homo sapiens, NCI-H460, read-out: Inhibitory efficacy, H460, 8uM, single repeats (Repeat 1-3), given as fraction): 29.6%
- inhibition at 16 µM ([2]; Homo sapiens, NCI-H460, read-out: Inhibitory efficacy, H460, 16uM, single repeats (Repeat 1-3), given as fraction): 26.7%
- Inhibitory efficacy ([3]; 1uM, given as fraction, Repeat 1-3): 0.3498 and 0.2466
- Inhibitory efficacy [3, 6]: 0.3315 and 0.2534
- Inhibitory efficacy [3, 7]: 0.2813 and 0.2524
- Inhibitory efficacy [3, 8]: 0.2486 and 0.3238
- Inhibitory efficacy [3, 9]: 0.291 and 0.2842
- inhibition at 1 µM ([3]; Homo sapiens, A549, read-out: Inhibitory efficacy, A549 cells, 1uM, given as fraction, Repeat 1-3): 27.5%
- inhibition at 2 µM [3, 10]: 24.8%
- inhibition at 4 µM [3, 11]: 30.8%
- inhibition at 8 µM [3, 12]: 29.7%
- inhibition at 16 µM [3, 13]: 37.2%
- Inhibitory efficacy [4, 6]: 0.2223 and 0.2165
- Inhibitory efficacy [4, 7]: 0.3132 and 0.3374
- Inhibitory efficacy [4, 8]: 0.4723 and 0.4708
- Inhibitory efficacy [4, 9]: 0.4151 and 0.4664
- inhibition at 2 µM ([4]; Homo sapiens, NCI-H1975, read-out: Inhibitory efficacy, H1975 cells, 2uM, given as fraction, Repeat 1-3): 29.3%
- inhibition at 4 µM ([4]; Homo sapiens, NCI-H1975, read-out: Inhibitory efficacy, H1975 cells, 4uM, given as fraction, Repeat 1-3): 38.9%
- inhibition at 8 µM ([4]; Homo sapiens, NCI-H1975, read-out: Inhibitory efficacy, H1975 cells, 8uM, given as fraction, Repeat 1-3): 50.2%
- inhibition at 16 µM [4, 14]: 54.1%
